Peptide text beside a SMILES is read from it. * marks the point of attachment. Cbz = O=C(OCc1ccccc1)*
What was measured:
p27^Kip1 = test: Western blot of p27^Kip1 protein; assay type: cell-based, human; details: MG132 100 nM added to cells over-expressing Ect2
Protocol: Cell Culture and Transfection. A172, U87, U118, U373 and T98G human glioma cells (ATCC, Manassas, Va.) were cultured in Dulbecco's modified Eagle's medium (DMEM) supplemented with 10% fetal bovine serum (Hyclone, South Logan, Utah). Cells were synchronised at quiescence through serum starvation. Full-length human Ect2 was cloned into the expression vector pXJ41 using EcoRI and BamHI digestion. The Ect2 truncation mutants ΔN-Ect2-DH/PH/C, ΔN-Ect2-DH/PH and ΔN-Ect2-DH were cloned in pCTV3-HA3. p27-PF, p27-ApaI, pGVB2 were gifts. For transient expression, cells were seeded at 40% confluence and transfected with 1.5 μg of DNA using Polyfect transfection reagent (Qiagen GmBH, Hilden, Germany). For knockdown experiments, Ect2 siRNAs were transfected into cells using SilentFect (Bio-Rad, Hercules, Calif.). RhoA inhibitor C3 exoenzyme (Upstate Biotech, Billerica, Mass.) was introduced into cells using Lipofectamine2000 (Invitrogen, Carlsbad, Calif.) at a concentration of 10 mg/ml. Cells were treated with the proteasome inhibitor MG132 (Calbiochem, San Diego, Calif.) at a concentration of 100 nM.
Western blot analysis. Whole cell lysates were prepared at the indicated time points following treatment. […] Protein quantity was determined by the Bradford Assay Reagent (Bio-Rad). […]

U118 glioma cells = test: Warburg effect: Western blot of AMPK phosphorylation, mTOR activity and ECT2 expression; assay type: cell-based, human
Protocol: Western blot analysis. Whole cell lysates were prepared at the indicated time points following treatment. Cells were lysed in 0.1% SDS buffer (50 mM Tris-HCl, pH7.5, 150 mM NaCl, 1% NP-40, 1% sodium deoxycholate, 0.1 mM sodium vanadate, 50 mM b-glycerophosphate, 1 mM NaF) supplemented with protease inhibitor cocktail (Roche, Basel, Switzerland). Lysates were clarified by centrifugation at 13,000 rpm for 20 min at 4° C. Protein quantity was determined by the Bradford Assay Reagent (Bio-Rad). Typically, 50 μg of protein was resolved on either 6% or 12% SDS-polyacrylamide and transferred onto PVDF membranes (Millipore, Billerica, Mass.). Membranes were probed using antibodies specific to Ect2 and other proteins listed in the attached document. Protein bands were visualized by chemiluminescence using the ECL Western blotting system (Amersham, Arlington Heights, Ill.) according to manufacturer's protocol. Actin was used as loading control.
The use of ECT2 inhibitor sensitizes glioma cell stochemotherapy treatment such as with Temozolomide (FIG. 14). ECT2 regulation by RTK/mTOR pathway through EGFR inhibition (FIG. 18) with Erlotinib (10 uM) (FIG. 18A), Akt inhibition with API2 (10 uM), and mTOR inhibition with Rapamycin (50 nM) (FIG. 18B) Warburg effect and ECT2 regulation was examined in U118 glioma cells. The cells were treated with glycolysis or oxidative phosphorylation inhibitors [2-Deoxy-glucose (2DG) and oligomycin, respectively]. Filipin III was used to permeabilise mitochondria to provide exogenous source of pyruvate for the Tricarboxylic acid (TCA) cycle. Cellular energy level was measured by Western blot analysis of AMPK phosphorylation.

Row | SMILES | Ect2-mediated suppression of p27^Kip1 (p27^Kip1) | ECT2 expression (U118 glioma cells) | mTOR activity (U118 glioma cells) | phosphorylated AMPK (U118 glioma cells; glycolysis inhibition)
1 | CC(C)C[C@@H](C=O)NC(=O)[C@H](CC(C)C)NC(=O)[C@H](CC(C)C)NC(=O)OCc1ccccc1 [MG132] (Cbz-Leu-Leu-Leu-aldehyde) | completely abrogated | – | – | –
2 | O=CC[C@@H](O)[C@H](O)[C@H](O)CO [2DG, 2-Deoxy-D-glucose] | – | reduced | significantly lower | higher level
3 | CC[C@H]1/C=C/C=C/C[C@@H](C)[C@H](O)[C@@](C)(O)C(=O)[C@@H](C)[C@H](O)[C@@H](C)C(=O)[C@@H](C)[C@H](O)[C@@H](C)/C=C/C(=O)O[C@@H]2[C@H](C)[C@H](CC1)O[C@]1(CC[C@H](C)[C@H](C[C@@H](C)O)O1)[C@H]2C [oligomycin] | – | did not affect | did not affect | –

Source: US20120231007A1, “MODULATORS OF CELL CYCLE PROGRESSION” (SINGAPORE HEALTH SERVICES PTE. LTD., priority 2009, published 2012)
